Laboratory results taken from patent US20240409585A1, “MACROCYCLIC IMMUNOMODULATORS” (priority 2021, published 2024).
Numbered stars: 1 amine (or outer) side, 2 acyl side, 3 side chain; on linkers, the order of the positions; unused ones are H or OH. Bridge positions count the residues as written; N and C are the ends. Square brackets hold non-standard residues; d marks the D form. Peptide text beside a SMILES is read from it. * marks the point of attachment. ξ: configuration not given here. X39 = COc1cccc(-c2ccc(C[C@H](N[*:1])C(=O)[*:2])cc2)c1; Phe(4-COOH) = N[C@@H](Cc1ccc(C(=O)O)cc1)C(=O)O; Bip = N[C@@H](Cc1ccc(-c2ccccc2)cc1)C(=O)O; Phe(4-CN) = N#Cc1ccc(C[C@H](N)C(=O)O)cc1; Phe(3-Me) = Cc1cccc(C[C@H](N)C(=O)O)c1; Phe(2-F) = N[C@@H](Cc1ccccc1F)C(=O)O; Val(3-OH) = CC(C)(O)[C@H](N)C(=O)O; 3Pal = N[C@@H](Cc1cccnc1)C(=O)O; 4Pal = N[C@@H](Cc1ccncc1)C(=O)O; Cha = N[C@@H](CC1CCCCC1)C(=O)O; Cit = NC(=O)NCCC[C@H](N)C(=O)O; Ile(3ξ) = CCC(C)[C@H](N)C(=O)O; NMeL = CN[C@@H](CC(C)C)C(=O)O; Thr(3ξ) = CC(O)[C@H](N)C(=O)O; NMeNle = CCCC[C@H](NC)C(=O)O; Carboxymethyl = O=C(O)C*; NMeA = CN[C@@H](C)C(=O)O; Nle = CCCC[C@H](N)C(=O)O; Orn = NCCC[C@H](N)C(=O)O; Pra = C#CC[C@H](N)C(=O)O; Dab = NCC[C@H](N)C(=O)O; Dap = NC[C@H](N)C(=O)O; Allyl = C=CC*

Molecular target: T1, PE-labeled human PD-L1-Ig binding to Jurkat cell line over-expressing human PD-1 (Jurkat-PD-1) (Homo sapiens, UniProt Q15116)
T1 construct: expressed in transfected cells; host or cells: Jurkat
Experiment: Jurkat-PD-1 Cell Binding High-Content Screening Assay (CBA): Method 1
Details: Jurkat-hPD-1 cells, PE-labeled PD-L1-Ig 20 nM final; read-out: Jurkat HPDL1 PD1 IC50 (uM) (Method 1)

T1 sequence (Q15116 25-288): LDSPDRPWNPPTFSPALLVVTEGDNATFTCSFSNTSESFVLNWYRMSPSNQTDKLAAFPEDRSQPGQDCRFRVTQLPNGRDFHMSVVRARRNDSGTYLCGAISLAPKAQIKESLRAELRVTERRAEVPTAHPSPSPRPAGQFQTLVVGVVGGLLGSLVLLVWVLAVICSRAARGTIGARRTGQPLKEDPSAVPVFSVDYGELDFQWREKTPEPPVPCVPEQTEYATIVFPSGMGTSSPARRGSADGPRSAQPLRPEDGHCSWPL

SMILES | IC50 [µM]
C=CCOc1ccc(C[C@@H]2NC(=O)[C@H](Cc3ccccc3)NC(=O)CSC[C@@H](C(=O)N[C@@H](C)C(N)=O)NC(=O)[C@H]([C@@H](C)O)NC(=O)[C@H](C(C)C)NC(=O)[C@H](CC(C)C)NC(=O)[C@H](CCCNC(=N)N)NC(=O)[C@@H](CC(C)C)NC(=O)[C@H](C)N(C)C(=O)[C@H](CCCNC(=N)N)NC(=O)[C@H](Cc3ccc(-c4ccccc4)cc3)NC(=O)[C@H](C(C)C)NC(=O)[C@H](Cc3c[nH]c4ccccc34)NC(=O)[C@H](CC(=O)O)NC2=O)cc1 [Compound 1088] ({CH2CO}-FY(Allyl)DWV[Bip]R[NMeA][dL]RLVTCA-NH2; thioether N-14) | 0.41
CC(C)C[C@@H]1NC(=O)[C@H](CCN)NC(=O)[C@@H](CC(C)C)NC(=O)[C@H](C)N(C)C(=O)[C@H](Cc2cnc[nH]2)NC(=O)[C@H](Cc2ccc(-c3ccccc3)cc2)NC(=O)[C@H](C(C)C)NC(=O)[C@H](Cc2c[nH]c3ccccc23)NC(=O)[C@H](CC(=O)O)NC(=O)[C@H](Cc2ccc(C(=O)O)cc2)NC(=O)[C@H](CN)NC(=O)CSC[C@@H](C(=O)N[C@@H](C)C(N)=O)NC(=O)[C@H]([C@@H](C)O)NC(=O)[C@H](C(C)C)NC1=O [Compound 1439] ({CH2CO}-[Dap][Phe(4-COOH)]DWV[Bip]H[NMeA][dL][Dab]LVTCA-NH2; thioether N-14) | 0.06
CC(C)C[C@@H]1NC(=O)[C@H](CCN)NC(=O)[C@@H](CC(C)C)NC(=O)[C@H](CC(C)C)N(C)C(=O)[C@H](C(C)C)NC(=O)[C@H](Cc2ccc(-c3ccccc3)cc2)NC(=O)[C@H](C(C)C)NC(=O)[C@H](Cc2c[nH]c3ccccc23)NC(=O)[C@H](CC(=O)O)NC(=O)[C@H](Cc2ccc(O)cc2)NC(=O)[C@H](CC(N)=O)NC(=O)CSC[C@@H](C(=O)N[C@@H](C)C(N)=O)NC(=O)[C@H]([C@@H](C)O)NC(=O)[C@H](C(C)C)NC1=O [Compound 1371] ({CH2CO}-NYDWV[Bip]V[NMeL][dL][Dab]LVTCA-NH2; thioether N-14) | 0.03
C#CC[C@H](NC(=O)[C@@H](C)NC(=O)[C@@H]1CSCC(=O)N[C@@H]([C@@H](C)O)C(=O)N[C@@H](Cc2ccc(OCC(=O)O)cc2)C(=O)N[C@@H](CC(=O)O)C(=O)N[C@@H](Cc2cccc(C)c2)C(=O)N[C@@H](Cc2ccc(OCC(=O)O)cc2)C(=O)N[C@@H](Cc2ccc(-c3ccccc3)cc2)C(=O)N[C@@H](Cc2ccc(OCC(=O)O)cc2)C(=O)N(C)[C@@H](C)C(=O)N[C@H](CC(C)C)C(=O)N[C@@H](CCN)C(=O)N[C@@H](CC2CCCCC2)C(=O)N[C@@H](C(C)(C)O)C(=O)N[C@@H](CCC(=O)O)C(=O)N1)C(N)=O [Compound 1945] ({CH2CO}-TY(Carboxymethyl)D[Phe(3-Me)]Y(Carboxymethyl)[Bip]Y(Carboxymethyl)[NMeA][dL][Dab][Cha][Val(3-OH)]EC[dA][Pra]-NH2; thioether N-14) | 0.93
CC(C)C[C@@H]1NC(=O)[C@H](CCN)NC(=O)[C@@H](CC(C)C)NC(=O)[C@H](C)N(C)C(=O)[C@H](C(C)C)NC(=O)[C@H](Cc2ccc(-c3ccccc3)cc2)NC(=O)[C@H](C(C)C)NC(=O)[C@H](Cc2c[nH]c3ccccc23)NC(=O)[C@H](CC(=O)O)NC(=O)[C@H](Cc2ccccc2F)NC(=O)[C@H](CN)NC(=O)CSC[C@@H](C(=O)N[C@@H](C)C(N)=O)NC(=O)[C@H]([C@@H](C)O)NC(=O)[C@H](C(C)C)NC1=O [Compound 1442] ({CH2CO}-[Dap][Phe(2-F)]DWV[Bip]V[NMeA][dL][Dab]LVTCA-NH2; thioether N-14) | 0.03
CCCC[C@@H]1NC(=O)[C@H](CCN)NC(=O)[C@@H](CC(C)C)NC(=O)[C@H](C)N(C)C(=O)[C@H](CCCN)NC(=O)[C@H](Cc2ccc(-c3ccccc3)cc2)NC(=O)[C@H](C(C)C)NC(=O)[C@H](Cc2c[nH]c3ccccc23)NC(=O)[C@H](CC(=O)O)NC(=O)[C@H](Cc2ccc(O)cc2)NC(=O)[C@H](CC(N)=O)NC(=O)CSC[C@@H](C(=O)N[C@@H](C)C(N)=O)NC(=O)[C@H]([C@@H](C)O)NC(=O)[C@H](C(C)C)NC1=O [Compound 1267] ({CH2CO}-NYDWV[Bip][Orn][NMeA][dL][Dab][Nle]VTCA-NH2; thioether N-14) | 0.26
CCCC[C@H]1C(=O)N[C@H](CC(C)C)C(=O)N[C@@H](CCN)C(=O)N[C@@H](CC(C)C)C(=O)N[C@@H](C(C)C)C(=O)N[C@@H](CO)C(=O)N[C@H](C(=O)N[C@@H](CC(N)=O)C(=O)O)CSCC(=O)N[C@@H](C(C)O)C(=O)N[C@@H](Cc2ccc(OCC(=O)O)cc2)C(=O)N[C@@H](CC(=O)O)C(=O)N[C@@H](Cc2c[nH]c3ccccc23)C(=O)N[C@@H](CC(C)C)C(=O)N[C@@H](Cc2ccc(-c3ccccc3)cc2)C(=O)N[C@@H](C(C)CC)C(=O)N1C (stereo partly drawn) [Compound 2229] ({CH2CO}-[Thr(3ξ)]Y(Carboxymethyl)DWL[Bip][Ile(3ξ)][NMeNle][dL][Dab]LVSCN-OH; thioether N-14) | 0.11
CC(C)C[C@@H]1NC(=O)[C@H](CCCNC(=N)N)NC(=O)[C@@H](Cc2ccccc2)NC(=O)[C@H](C)N(C)C(=O)[C@H](CCCNC(=N)N)NC(=O)[C@H](Cc2ccc(-c3ccccc3)cc2)NC(=O)[C@H](C(C)C)NC(=O)[C@H](Cc2c[nH]c3ccccc23)NC(=O)[C@H](CC(=O)O)NC(=O)[C@H](Cc2ccc(O)cc2)NC(=O)[C@H](Cc2cnc[nH]2)NC(=O)CSC[C@@H](C(=O)N[C@@H](C)C(N)=O)NC(=O)[C@H](CO)NC(=O)[C@H](C(C)C)NC1=O [Compound 1044] ({CH2CO}-HYDWV[Bip]R[NMeA][dF]RLVSCA-NH2; thioether N-14) | 0.04
CC(C)C[C@@H]1NC(=O)[C@H](CCN)NC(=O)[C@@H](CC(C)C)NC(=O)[C@H](C)N(C)C(=O)[C@H](CCCNC(N)=O)NC(=O)[C@H](Cc2ccc(-c3ccccc3)cc2)NC(=O)[C@H](C(C)C)NC(=O)[C@H](Cc2c[nH]c3ccccc23)NC(=O)[C@H](CC(=O)O)NC(=O)[C@H](Cc2ccc(C#N)cc2)NC(=O)[C@H](CC(N)=O)NC(=O)CSC[C@@H](C(=O)N[C@@H](C)C(N)=O)NC(=O)[C@H]([C@@H](C)O)NC(=O)[C@H](C(C)C)NC1=O [Compound 1312] ({CH2CO}-N[Phe(4-CN)]DWV[Bip][Cit][NMeA][dL][Dab]LVTCA-NH2; thioether N-14) | 0.05
CC(C)C[C@@H]1NC(=O)[C@H](CCN)NC(=O)[C@@H](CC(C)C)NC(=O)[C@H](C)N(C)C(=O)[C@H](CCCNC(=N)N)NC(=O)[C@H](Cc2ccc(-c3ccccc3)cc2)NC(=O)[C@H](C(C)C)NC(=O)[C@H](Cc2c[nH]c3ccccc23)NC(=O)[C@H](CC(=O)O)NC(=O)[C@H](Cc2ccc(O)cc2)NC(=O)[C@H](CCC(N)=O)NC(=O)CSC[C@@H](C(=O)N[C@@H](C)C(N)=O)NC(=O)[C@H]([C@@H](C)O)NC(=O)[C@H](C(C)C)NC1=O [Compound 1056] ({CH2CO}-QYDWV[Bip]R[NMeA][dL][Dab]LVTCA-NH2; thioether N-14) | 0.06
CC(C)C[C@@H]1NC(=O)[C@H](Cc2c[nH]c3ccccc23)NC(=O)[C@H](CC(N)=O)NC(=O)[C@H](Cc2ccc(O)cc2)NC(=O)[C@H](Cc2ccccc2)NC(=O)CSC[C@@H](C(=O)N[C@@H](C)C(N)=O)NC(=O)[C@H](CO)NC(=O)[C@H](C(C)C)NC(=O)[C@H](CC(C)C)NC(=O)[C@H](CC(N)=O)NC(=O)[C@@H](C)NC(=O)[C@H](C)N(C)C(=O)[C@H](C(C)C)NC(=O)[C@H](Cc2ccc(-c3ccccc3)cc2)NC1=O [Compound 1791] ({CH2CO}-FYNWL[Bip]V[NMeA][dA]NLVSCA-NH2; thioether N-14) | 0.13
CC(C)C[C@@H]1NC(=O)[C@H](Cc2c[nH]c3ccccc23)NC(=O)[C@H](CC(=O)O)NC(=O)[C@H](Cc2ccc(C(=O)O)cc2)NC(=O)[C@H](Cc2ccccc2)NC(=O)CSC[C@@H](C(=O)N[C@@H](C)C(N)=O)NC(=O)[C@H](CO)NC(=O)[C@H](C(C)C)NC(=O)[C@H](CC(C)C)NC(=O)[C@H](CC(N)=O)NC(=O)[C@@H](C)NC(=O)[C@H](C)N(C)C(=O)[C@H](C(C)C)NC(=O)[C@H](Cc2ccc(-c3ccccc3)cc2)NC1=O [Compound 1731] ({CH2CO}-F[Phe(4-COOH)]DWL[Bip]V[NMeA][dA]NLVSCA-NH2; thioether N-14) | 0.01
COc1cccc(-c2ccc(C[C@@H]3NC(=O)[C@H](CC(C)C)NC(=O)[C@H](Cc4c[nH]c5ccccc45)NC(=O)[C@H](CC(=O)O)NC(=O)[C@H](Cc4ccc(O)cc4)NC(=O)[C@H](Cc4ccccc4)NC(=O)CSC[C@@H](C(=O)N[C@@H](C)C(N)=O)NC(=O)[C@H](CO)NC(=O)[C@H](C(C)C)NC(=O)[C@H](CC(C)C)NC(=O)[C@H](CC(N)=O)NC(=O)[C@@H](C)NC(=O)[C@H](C)N(C)C(=O)[C@H](C(C)C)NC3=O)cc2)c1 [Compound 1798] ({CH2CO}-FYDWL[X39]V[NMeA][dA]NLVSCA-NH2; thioether N-14) | 0.17
CC(C)C[C@@H]1NC(=O)[C@H](Cc2c[nH]c3ccccc23)NC(=O)[C@H](CC(=O)O)NC(=O)[C@H](Cc2ccncc2)NC(=O)[C@H](Cc2ccc(OCC(=O)O)cc2)NC(=O)CSC[C@@H](C(=O)N[C@@H](CCN)C(N)=O)NC(=O)[C@H](CCCN)NC(=O)[C@H](C(C)C)NC(=O)[C@H](CC2CCCCC2)NC(=O)[C@H](CCN)NC(=O)[C@@H](CC(C)C)NC(=O)[C@H](C)N(C)C(=O)[C@H](C(C)C)NC(=O)[C@H](Cc2ccc(-c3ccccc3)cc2)NC1=O [Compound 1948] ({CH2CO}-Y(Carboxymethyl)[4Pal]DWL[Bip]V[NMeA][dL][Dab][Cha]V[Orn]C[Dab]-NH2; thioether N-14) | 0.02
CC(C)C[C@@H]1NC(=O)[C@H](CCN)NC(=O)[C@@H](CC(C)C)NC(=O)[C@H](C)N(C)C(=O)[C@H](CCCNC(N)=O)NC(=O)[C@H](Cc2ccc(-c3ccccc3)cc2)NC(=O)[C@H](C(C)C)NC(=O)[C@H](Cc2c[nH]c3ccccc23)NC(=O)[C@H](CC(=O)O)NC(=O)[C@H](Cc2ccc(C(=O)O)cc2)NC(=O)[C@H](Cc2cccnc2)NC(=O)CSC[C@@H](C(=O)N[C@@H](C)C(N)=O)NC(=O)[C@H]([C@@H](C)O)NC(=O)[C@H](C(C)C)NC1=O [Compound 1332] ({CH2CO}-[3Pal][Phe(4-COOH)]DWV[Bip][Cit][NMeA][dL][Dab]LVTCA-NH2; thioether N-14) | 0.03
